From patent US6632826B1, “Carbocyclic HIV protease inhibitors” (priority 2001, dated 2003)
Read-outs that look alike come from different tables or passages of the source.

What was measured:
HIV-1 protease = HIV-1 protease (Human immunodeficiency virus type 1 group M subtype B, UniProt P04585); assay: HIV protease inhibition assay (quenched fluorogenic substrate, fluorescence energy transfer); settings: crude HIV-1 protease from E. coli, pH 4.7, 2 hours at 37° C.
Description: HIV Protease Inhibition Assay
HIV protease inhibitory activity was assessed using an adaptation of the method of Matayoshi. et al. [Matayoshi E. D. et al (1990).
Crude HIV-1 protease was prepared from E. coli pPTΔN. Cultures were grown at 30° C. in M9 medium supplemented with 0.2% casamino acids, 100 μg/ml ampicillin and 25 μg/ml thiamine until OD600=0.5-0.6, and the temperature was raised to 42° C. to induce expression of the protease. After 1.5 hours, the cells were harvested and the pellets stored at −70° C. until required.
The protease was prepared by lysis of the cells in a French pressure cell followed by precipitation of the enzyme with ammonium sulfate at 30% saturation.
The assay buffer comprised 0.1M sodium acetate pH 4.7, 8 mM EDTA, 0.2 M NaCl.
Tubes were incubated for 2 hours at 37° C. and the reaction was terminated by the addition of 500 μl of a 2:1 mixture of DMSO: 50 mM Tricine pH 8.5. Fluorescence was measured in a fluorescence spectrophotometer, excitation λ=340 nm, emission λ=492 nm.

HIV-HXB2 in MT4 cells = assay: Antiviral assay: protection of HIV-infected MT4 cells from cell death (MTT); type: cell-based; settings: MT4 cells infected with HIV-HXB2, 5 days, concentration preserving cell viability by 50%
Description: Methods 20: 309-321]. The method is based on the ability of compounds to protect HIV-infected T lymphoblastoid cells (MT4 cells) from cell-death mediated by the infection. The endpoint of the assay was calculated as the concentration of compound at which the cell viability of the culture was preserved by 50% (‘50% inhibitory concentration’, IC50). The cell viability of a culture was determined by the uptake of soluble, yellow 3-[4,5-dimethylthiazol-2-yl]-2,5-diphenyltetrazolium bromide (MTT) and its reduction to a purple insoluble formazan salt. After solubilization, spectrophotometric methods were employed to measure the amount of formazan product. MT4 cells were prepared to be in logarithmic-phase growth and a total of 2×10^6 cells infected with either the wild type or site directed mutant clones of HIV-HXB2 at a multiplicity of approximately 0.0001 infectious units of virus per cell in a total volume of between 200-500 μl. The cells were incubated with virus for one hour at 37° C. then washed in 0.01 M phosphate buffered saline, pH 7.2, and resuspensed in culture medium for incubation in culture with serial dilutions of test compound. The culture medium used was RPMI 1640 without phenol red, supplemented with penicillin, streptomycin, L-glutamine and 10% fetal calf serum (GM 10).
Test compounds were prepared as 2 mM solutions in dimethyl sulphoxide (DMSO). Four replicate, serial 2-fold dilutions in GM10 were then prepared and 50 microlitre amounts placed in 96-well plates over a final concentration range of 625-1.22 nm. Fifty microlitres GM10 and 3.75×10^4 infected cells were then added to each well. Control cultures containing no cells (blank), uninfected cells (100% viability; 4 replicates) and infected cells without compound (total virus-mediated cell death; 4 replicates) were also prepared. The cultures were then incubated at 37° C. in a humidified atmosphere of 5% CO2 in air for 5 days.
A fresh solution of 5 mg/mL MTT was prepared in 0.01 M phosphate buffered saline, pH 7.2 and 20 μL added to each culture. The cultures were further incubated as before for 2 hours. They were then mixed by pipetting up and down, and 170 microlitres of Triton X-100 in acidified isopropanol (10% v/v Triton X-100 in 1:250 mixture of concentrated HCl in isopropanol) were added and the cultures were mixed again by pipetting up and down. When the formazan deposit was fully solubilised by further mixing, the absorbance (OD) of the cultures was measured at 540 nm and 690 nm wavelength (690 nm readings were used as blanks for artefacts between wells). The percent protection for each treated culture was then calculated from the equation: [formula]
The IC50 was then obtained from graph plots of percentage protection versus log10 drug concentration.

[1] = Human immunodeficiency virus 1, HXB2, MT4, 120 h

Structure (SMILES)	IC50 (HIV-1 protease; Enzyme IC50 (nM)) [nM]	IC50 (HIV-HXB2 in MT4 cells; [1]) [nM]	IC50 (HIV-HXB2 in MT4 cells) [nM]	IC50 (HIV-1 protease; read-out: Enzyme IC50) [nM]
CC(C)(C)NC(=O)[C@@H]1CCCCC1C[C@@H](O)[C@H](Cc1ccccc1)NC(=O)[C@@H](CSc1cccc2ccccc12)NS(C)(=O)=O (stereo in doubt) [Example 13, 2-{2-Hydroxy-3-[2-methanesulfonylamino-3-(naphthalen-1-ylsulfanyl)-propionylamino]-4-phenyl-butyl}-cyclohexanecarboxylic acid tert-butylamide]	0.44	–	–	–
COC1CCC(C[C@@H](O)[C@H](Cc2ccccc2)NC(=O)[C@@H](CSc2ccc3ccccc3c2)NS(C)(=O)=O)C(C(=O)NC(C)(C)C)C1 (stereo partly drawn) [Example 1, 2-{2-hydroxy-3-[2-methanesulfonylamino-3-(naphthalen-2-ylsulfanyl)-propionylamino]-4-phenyl-butyl}-5-methoxy-cyclohexanecarboxylic acid tert-butylamide]	0.31	29	–	–
CC1CC(C[C@@H](O)[C@H](Cc2ccccc2)NC(=O)[C@@H](CSc2ccc3ccccc3c2)NS(C)(=O)=O)C(C(=O)NC(C)(C)C)C1 (stereo partly drawn) [Example 2, 2-{2-Hydroxy-3-[2-methanesulfonylamino-3-(naphthalen-2-ylsulfanyl)-propionylamino]-4-phenyl-butyl}-4-methyl-cyclopentanecarboxylic acid tert-butylamide]	1.5	230	–	–
CO[C@H]1CC[C@@H](C(=O)NC(C)(C)C)C(C[C@@H](O)[C@H](Cc2ccccc2)NC(=O)[C@@H](CSc2ccc3ccccc3c2)NS(C)(=O)=O)C1 (stereo partly drawn) [Example 7, N-tert-Butyl-[2-hydroxy-3-[[N2-(methanesulfonyl)-S-(2-naphthyl)-D-cysteinyl]amino]-4-phenylbutyl]-4-methoxy-1-cyclohexanecarboxamide]	0.42	35.8	–	–
COC1CCC(C[C@@H](O)[C@H](Cc2ccccc2)NC(=O)[C@@H](CSc2ccc3ccccc3c2)NS(C)(=O)=O)C(C(=O)NC(C)(C)C)C1 (stereo partly drawn) [Example 10, 2-{2-Hydroxy-3-[2-methanesulfonylamino-3-(naphthalen-2-ylsulfanyl)-propionylamino]-4-phenyl-butyl}-5-methoxy-cyclohexanecarboxylic acid tert-butylamide]	0.3	–	28	–
COC1CCC(C[C@@H](O)[C@H](Cc2ccccc2)NC(=O)[C@@H](C[S+]([O-])c2ccc3ccccc3c2)NS(C)(=O)=O)C(C(=O)NC(C)(C)C)C1 (stereo partly drawn) [Example 14, 2-{2-Hydroxy-3-[2-methanesulfonylamino-3-(naphthalene-2-sulfinyl)-propionylamino]-4-phenyl-butyl}-5-methoxy-cyclohexanecarboxylic Acid tert-Butylamide]	0.2	20.9	–	–
CC1CC(C[C@@H](O)[C@H](Cc2ccccc2)NC(=O)[C@@H](C[S+]([O-])c2ccc3ccccc3c2)NS(C)(=O)=O)C(C(=O)NC(C)(C)C)C1 (stereo partly drawn) [Example 15, 2-{2-Hydroxy-3-[2-methanesulfonylamino-3-(naphthalene-2-sulfinyl)-propionylamino]-4-phenyl-butyl}-4-methyl-cyclopentanecarboxylic acid tert-butylamide]	1.5	27	–	–
COC1CCC(C[C@@H](O)[C@H](Cc2ccccc2)NC(=O)[C@@H](C[S+]([O-])c2ccc3ccccc3c2)NS(C)(=O)=O)C(C(=O)NC(C)(C)C)C1 (stereo partly drawn) [Example 20, 2-{2-Hydroxy-3-[2-methanesulfonylamino-3-(naphthalene-2-sulfinyl)-propionylamino]-4-phenyl-butyl}-5-methoxy-cyclohexanecarboxylic acid tert-butylamide]	–	–	21	0.2
CC(C)(C)NC(=O)C1CCCCC1C[C@@H](O)[C@H](Cc1ccccc1)NC(=O)[C@@H](C[S+]([O-])c1cccc2ccccc12)NS(C)(=O)=O (stereo partly drawn) [Example 21, 2-{2-Hydroxy-3-[2-methanesulfonylamino-3-(naphthalene-1-sulfinyl)-propionylamino]-4-phenyl-butyl}-cyclohexanecarboxylic acid tert-butylamide]	0.31	–	–	–
CC1CC(C[C@@H](O)[C@H](Cc2ccccc2)NC(=O)[C@@H](CS(=O)(=O)c2ccc3ccccc3c2)NS(C)(=O)=O)C(C(=O)NC(C)(C)C)C1 (stereo partly drawn) [Example 23, 2-{2-Hydroxy-3-[2-methanesulfonylamino-3-(naphthalene-2-sulfonyl)-propionylamino]-4-phenyl-butyl}-4-methyl-cyclopentanecarboxylic acid tert-butylamide]	0.55	13	–	–
CO[C@H]1CC[C@@H](C(=O)NC(C)(C)C)C(C[C@@H](O)[C@H](Cc2ccccc2)NC(=O)[C@@H](CS(=O)(=O)c2ccc3ccccc3c2)NS(C)(=O)=O)C1 (stereo partly drawn) [Example 27, N-tert-Butyl-2-[2-hydroxy-3-[[N2-(methanesulfonyl)-S-(2-naphthyl)-D-cysteinyl]amino]-4-phenylbutyl]-4-methoxy-1-cyclohexanecarboxamide S,S-dioxide]	0.2	8.3	–	–
COC1CCC(C[C@@H](O)[C@H](Cc2ccccc2)NC(=O)[C@@H](CS(=O)(=O)c2cccc3ccccc23)NS(C)(=O)=O)C(C(=O)NC(C)(C)C)C1 (stereo partly drawn) [Example 29, 2-{2-Hydroxy-3-[2-methanesulfonylamino-3-(naphthalene-1-sulfonyl)-propionylamino]-4-phenyl-butyl}-5-methoxy-cyclohexanecarboxylic acid tert-butylamide]	0.41	73	–	–
COC1CCC(C[C@@H](O)[C@H](Cc2ccccc2)NC(=O)[C@@H](CS(=O)(=O)c2ccc3ccccc3c2)NS(C)(=O)=O)C(C(=O)NC(C)(C)C)C1 (stereo partly drawn) [Example 30, 2-{2-Hydroxy-3-[2-methanesulfonylamino-3-(naphthalene-2-sulfonyl)-propionylamino]-4-phenyl-butyl}-5-methoxy-cyclohexanecarboxylic acid tert-butylamide]	0.6	173	–	–
